The test system of test [1] is recombinant Y. lipolytica (Y. lipolytica-GDH2). The experiment in a line: Intracellular glutamate content of recombinant strain fermented with L-methionine imide. In kind it is cell-based, Yarrowia lipolytica. Here is the method: Determination of GDH catalytic activity and intracellular amino acid content: cells were collected by centrifugation in the exponential growth phase and washed by 0.9% saline, then suspended by 10 mL buffer (0.1 M KH2PO4-K2HPO4, 1 mM EDTA, 0.01 mM DTT, pH 7.5). Pickling glass beads was added for grinding for 5 min at 4° C., and then centrifuged at 13000×g for 10 min. The supernatant was used for the determination of catalytic activity of GDH and the intracellular amino acid content.
Intracellular glutamate and glutamine was determinated by the following steps: 200 μl cell disruption supernatant and 800 μL 5% trichloroacetic acid was sequentially added to an 1 mL EP tube and standed for 5 min. 1 mL sample was filtered by 0.22 μm aqueous filter head and then centrifuged at 10000 rpm for 10 min. The amino acid content of the treated sample was measured by HPLC.
The HPLC conditions were as follows: pre-column derivatization of sample was carried out by […] (OPA) and 9-Fluorenylmethyl Chloroformate. […]
The wild type Y. lipolytica WSH-Z06 and the recombinant strain Y. lipolytica-GDH2 were incubated in 500 mL flasks with 50 mL fermentation medium at 28° C., 200 rpm for 96 hours at the same time. […] The glutamate contents were quantified by the methods described above.

The test system is the same in test [2]. Briefly: Extracellular α-KG accumulation of recombinant strain fermented with L-methionine imide. In kind it is cell-based, Yarrowia lipolytica. Here is the method: Fermentation medium: 36.1 mg·L^−1 L-methionine imine, 100 g·L^−1 glycerol, 3 g·L^−1 (NH4)2SO4, 3 g·L^−1 KH2PO4, 1.2 g·L^−1 MgSO4·7H2O, 0.5 g·L^−1 NaCl, 0.1 g·L^−1 K2HPO4, 2×10^−7 g·L^−1 thiamine hydrochloride, pH 4.5, and then sterilized at 115° C. for 15 min. CaCO3 sterilized at 121° C. for 30 min was added to 20 g·L^−1 before inoculation.
Extracellular α-KG was quantified by HPLC. Appropriate supernatant of fermentation broth centrifuged at 13000×g was diluted 50-fold with ultrapure water and filtrated by 0.22 μm filter for HPLC analysis. The column was Aminex HPX-87H ion exchange column and 5 mmol·L^−1 sulfuric acid solution (550 μL concentrated sulfuric acid volumed to 2 L) filtrated by 0.22 μm filter and degassed was used as mobile phase. The velocity of flow was 0.6 mL·min^−1 with a column temperature at 35° C. and a injection volume of 10 μL. The wavelength of UV detector was 210 nm.
α-KG was produced as the method described above. The wild type Y. lipolytica WSH-Z06 and the recombinant strain Y. lipolytica-GDH2 were incubated in 500 mL flasks with 50 mL fermentation medium containing L-methionine imide at 28° C., 200 rpm for 144 hours at the same time to accumulate α-KG extracellular.

Results on 1 compound are retold here after patent publication US20160138057A1, “Methods for enhancing alpha-ketoglutarata production in Yarrowia lipolytica” (priority 2014, published 2016).

As for `CSCC[C@H](N)C(N)=O` [L-methionine imide], the “content of glutamate intracellular” value in test [1] (0.2 mM L-methionine imide added during fermentation of the recombinant strain) is 0.99 μmol per mg dry cells weight (DCW). Further, in test [1] (0.2 mM L-methionine imide, recombinant strain, versus wild type strain), the “increase of intracellular glutamate content” value turned out to be 86.3%. In addition, the “increase of extracellular α-KG accumulation” value in test [2] (0.2 mM L-methionine imide, versus wild type strain) worked out at 32.4%. In addition, the “accumulation of α-KG extracellular” value in test [2] (fermentation medium containing L-methionine imide (0.2 mM), 28° C., 200 rpm, 144 hours) was 19.2 g/L.
